We go through four compounds from paper PMC12775823, “Glucosylceramide regulates depression through activating peroxisome proliferator-activated receptor gamma in dorsal striatum” (Theranostics, 2026).

Counter-ions that a name gives are not always drawn.

The test system of one data set is T1, GCS.
T1 construct: from tissue; host or cells: mouse dorsal striatum
In words: GCS activity in dorsal striatum of CRS-induced mice. As to conditions: intra-dorsal striatal PDMP. The format is in vivo.

The next data set deals with CRS-induced mice. In words: Behavioral tests (OFT, EPMT, LDT, SPT, FST) in chronic restraint stress mice, intra-dorsal striatal infusion. The format is in vivo. The method, then:
For intracranial injection, mice were surgically implanted with sterilized guide cannulae in dorsal striatum. […] Mice were intraperitoneally injected with CNO (1 mg/kg/d) before behavioral test.
Chronic restraint stress (CRS). For the CRS protocol, male C57BL/6J mice (8-10 weeks old) were obtained from Charles River Laboratories (Beijing, China). Mice were individually placed into well-ventilated 50 mL conical restraint tube (suitable for mice weighing 20-25 g) with multiple holes for 4 h daily between 10:00 AM and 2:00 PM to minimize circadian rhythm variations. The restraint stress procedure was conducted for 14 consecutive days. Then, all behavioral test were performed between 10:00 AM and 18:00 PM.
(§1) Elevated plus maze test (EPMT).
(§2) Light-dark Transition test (LDT).
(§3) Sucrose preference test (SPT).
(§4) Forced swimming test (FST).

The next data set relates to T2, PPARγ.
T2 construct: from tissue; host or cells: mouse dorsal striatum
In words: PPARγ mRNA, protein and transcriptional activity in dorsal striatum of CRS-induced mice. The format is in vivo. The text has this: Dorsal striatal tissues were processed in accordance with the RNA isolation kit's instructions (RC102/RC112; Vazyme Biotech Co.,Ltd), mRNA was reverse transcribed using HiScript® III All-in-one RT SuperMix (Vazyme Biotech Co.,Ltd), and cDNA was amplified using SYBR Green (Vazyme Biotech Co.,Ltd). The 2^-ΔΔCt method was used to analyze gene expression, and the relative level of the target gene was normalized to Gapdh. The primer sequences can be found in Supplemental materials Table S1.
Brain tissues were cut into small pieces and then centrifuged at 13,000 g for 15 min at 4 °C. Supernatants were collected, and proteins concentrations were determined by BCA assay. Samples were denatured at 95 °C for 5 min and subsequently stored at -80 °C for further use. Protein samples were loaded onto 10% SDS-PAGE and transferred on PVDF membranes. After being blocked with 5% nonfat dry milk in Tris-buffered saline with 0.1% Tween-20 for 1.5 h, the PVDF membranes were incubated with corresponding primary antibodies overnight at 4 °C. Membranes were then incubated with HRP-conjugated secondary antibodies for 1 h at room temperature and measured with chemiluminescence imaging system (ChemiScope; Clinx, China).
Nuclear extracts were prepared from N2a cells using a nuclear extraction kit according to the manufacturer protocol. The binding reaction between PPARγ and PPRE was carried out at 4°C for 16 h using 3 μg of nuclear extracts. The binding activity between PPARγ and PPRE was indicated by the change of optical density (OD) at 405 nm, and an enzyme reaction was measured by HRP-conjugated antibody in complex of PPRE/ PPARγ/antibody.

The nature of data set [1]: LC-MS of GlcCer levels in dorsal striatum of CRS-induced mice. The format is in vivo. Conditions: intra-dorsal striatum infusion of pioglitazone, GlcCer or combination. Here is the method:
The procedure for the extraction of sphingolipids was established according to the LIPID MAPS protocol with modifications. Briefly, dorsal striatal tissues were added 0.5 mL of MeOH, 0.25 mL of CHCl3 and 7.5 μL of internal standards cocktail (2.5 μM). For sphingolipidomics, 5 μL of internal standards mixture (LM6002, Avanti polar lipids) was added. The mixture was then ultrasonicated for 45 s at room temperature and incubation at 48°C overnight. To avoid potentially interfering glycerolipids, 75 μL of KOH in MeOH (1M) was added, followed by incubation in a heat block at 200 rpm for 2 h at 37 °C. After neutralization, a four-step extraction process was performed to obtain SPL extract for analysis. The supernatant was transferred to a new Eppendorf tube and the resides were added l mL of MeOH and 2 mL of CHCl3, followed by centrifugation at 3800 rpm for 8 min. […] Sphingolipidomics were measured with ultra-high-performance liquid chromatography (UPLC) coupled with hybrid Quadrupole-Orbitrap high resolution mass spectrometry (Q-Exactive-HRMS). […] For […] quantitation, brain tissues were quantified by UPLC-MS/MS using a Q-Exactive-HRMS with UPLC. […] Quantification of […] with various fatty acid chain lengths were achieved using the calibration curve of each GlcCer species with closest number of chain length. […]

The test system of another data set is D2-Ugcg^f/f mice. In words: Behavioral tests in D2-Ugcg f/f mice after intra-dorsal striatal microinfusion. The format is in vivo. As to conditions: pioglitazone 1 μM, 1 μL per side.
The subject of data set [2] is depression and bipolar disorder. More on the design: method as in PMID 30699881. As to conditions: clinical; ref [10]; cited from earlier work.
Another data set has as its system PPARγ target genes. Nature of the data set: qRT-PCR of PPARγ target genes in PPARγ-overexpressing N2a cells. The format is cell-based. As to conditions: 0.1, 1 and 10 μM. Background: Real-time PCR tracks product formation cycle by cycle.
In data set [3] the test system is D2-MSNs in dorsal striatum of D2-Ugcg^f/f mice. In words: DREADD (AAV-hM3Dq) activation of D2-MSNs, c-Fos and behavioral tests. As to conditions: CNO 1 mg/kg, i.p.
Description: Open field test (OFT). […] Mice were gently placed in the center and allowed to explore the area for 5 min. The total distance travelled and time spent in the center (20 × 20 cm^2) were recorded using EthoVision version 7.0 software (Noldus Information Technology, Netherlands).
Elevated plus maze test (EPMT). The apparatus consisted of two open arms (30 cm × 5 cm) and two closed arms (30 cm × 5 cm × 15 cm) extending from a central platform (5 cm × 5 cm), elevated 50 cm above the floor. Mice were placed on the central platform facing one of the open arms and allowed to explore the maze for 5 min. Behavior was recorded using a video camera positioned above the maze in conjunction with Anymaze tracking software (Stoelting Co.; Wood Dale, IL, USA).
Forced swimming test (FST). Each mouse was placed individually into a water-filled cylinder maintained at 23-25 °C and allowed to swim for 6 min. The first 2 min were considered an acclimation period, and data from this period were not included in the analysis. During the remaining 4 min, the behavior of the mice was recorded using EthoVision version 7.0 software (Noldus Information Technology, Netherlands).
D2-Cre or D2-Ugcg^f/f mice were bilaterally injected with AAV-hM3Dq into the dorsal striatum (AP +0.8 mm, ML ±1.5 mm, DV -3.0 mm). Following surgery, mice were given 3 weeks to express the virus before starting behavioral tests. Prior to each behavioral test, mice received an injection of Clozapine N-oxide (CNO; 1 mg/kg, i.p.; Sigma-Aldrich, USA) 30 min before the testing session.
The next data set deals with D2-Pparg^f/f mice. In words: Behavioral tests in D2-Pparg f/f mice after intra-dorsal striatal microinfusion. It counts as in vivo. As to conditions: UNC 10 μM, 1 μL/side. Here is the method: For intracranial injection, mice were surgically implanted with sterilized guide cannulae in dorsal striatum. Intra-dorsal striatal injection of PDMP (100 μM, 1 μL/injection), pioglitazone (100 μM, 1 μL/injection), UNC (10 μM, 1 μL/injection) was performed 30 min before behavioral test. Mice were intraperitoneally injected with CNO (1 mg/kg/d) before behavioral test.
as §1, §2, §3, §4

Where [4] appears, read: CRS mice, PDMP 100 μM, 1 μL/side.
Where [5] appears, read: D2-Ugcg^f/f mice with AAV-hM3Dq.

On to `CCCCCCCCCC(=O)N[C@@H](CN1CCOCC1)[C@@H](O)c1ccccc1.Cl` [PDMP, (-)-L-threo-PDMP hydrochloride], for which the “GCS activity in the dorsal striatum” value in the data set with GCS is recorded as “significantly enhanced”. Besides, in the data set with CRS-induced mice (setting [4]), the “immobility time in the FST” value is “reduced”, the “sucrose preference in the SPT” value is reported as “restored”, the “time spent in light area in the LDT” value is reported as “increased” and the “time spent in open arms in the EPMT” value is “increased”. In the data set on CRS-induced mice (setting [4]), the “time spent in the center area in the OFT” value is recorded as “increased”. The “anxiety- and depression-like behaviors following CRS” value with CRS-induced mice (PDMP 100 μM, 1 μL/side, intra-dorsal striatum) is “significantly ameliorated”. For the same compound, in the data set on PPARγ (PDMP treatment), the “PPARγ activity in the dorsal striatum” value is listed as “significantly enhanced” and the “PPARγ mRNA or protein expression” value is “did not alter”.

Take `CCc1ccc(CCOc2ccc(CC3SC(=O)NC3=O)cc2)nc1` (centres unmarked) [pioglitazone, Pioglitazone hydrochloride]: in data set [1], the “GlcCer levels in the dorsal striatum (LC-MS)” value is “did not alter”. The “anxiety- and depression-like behaviors in the OFT, EPMT, LDT, SPT, and FST” value with D2-Ugcg^f/f mice is recorded as “effectively reversed”. Further, the “symptoms of depression and bipolar disorder” value in [2] is reported as “proven effective”. Further, in the data set on PPARγ target genes, the “expression of Adipoq and Leptin” value is “robustly upregulated”; the “expression of Angptl4” value is on record as “significantly increased”; the “expression of adipogenesis-related genes (Srebp-1c, Adrp, Fabp4, Fasn, Cd36)” value was “strongly induced”. The “stress-induced depression-like behaviors (overall)” value in the data set on CRS-induced mice (CRS mice, administration of GlcCer, pioglitazone or combined) is “reverses”. In addition, in the data set on PPARγ (intra-dorsal striatum pioglitazone, GlcCer or combination), the “PPARγ mRNA or protein expression” value is “neither pioglitazone, GlcCer, nor their combination altered”.

On to `C[N+]1([O-])CCN(C2=Nc3cc(Cl)ccc3Nc3ccccc32)CC1` [CNO, Clozapine-N-oxide], for which the “expression of c-Fos” value in [3] (AAV-hM3Dq-injected mice) is on record as “significantly increased”. In addition, in data set [3] (setting [5]), the “immobility time in the FST” value was “lower”, the “time in the center area in the OFT” value is “more time”, the “time in the light room in the LDT” value is reported as “more time” and the “time in the open arms in the EPMT” value is on record as “more time”.

As for `Clc1cccc(N2CCN(CCCOc3ccc4scnc4c3)CC2)c1Cl` [UNC, UNC9995], the “reductions in the OFT, EPMT, LDT, SPT, and FST” value in the data set on D2-Pparg^f/f mice is given as “effectively reversed”.
